# Laboratory results as given in patent US20250214977A1, “STAT6 INHIBITORS AND USES THEREOF” (Kymera Therapeutics, Inc., priority 2024, published 2025).
# System: Phosphorylation of STAT6 in human A549 cells
# Test: Phosphorylated STAT6 (pSTAT6) flow cytometry assay in human A549 cells
# Format: cell-based
# Conditions: read-out: STAT6 IL4 pSTAT6 assay in A549 cells: Average IC50
# Excerpt: Example 3. Phosphorylated STAT6 (pSTAT6) Flow Cytometry Assay in Human A549 Cells
# Phosphorylation of STAT6 in human A549 cells was quantitatively measured using flow cytometry technology.
row,IC50,Compound
1,< 100 nM,COc1cccc(N2CCN(C(=O)c3cc4c(-c5ccncc5OC)cc(C5=CCCN(C(=O)CCn6ccnn6)C5)c(F)c4[nH]3)CC2)n1 [Example I-612]
2,< 100 nM,CCOc1ccncc1-c1cc(C2=CCCN(C(=O)CCn3ccnn3)C2)c(F)c2[nH]c(C(=O)N3CCN(c4ncncc4OC)CC3)cc12 [Example I-1108]
3,> 100000 nM,CCc1ncccc1-c1cc(C(=O)N2CCN(c3ncc(F)cc3OC)CC2)cc2cc(C3=CCCN(C(=O)C(=O)O)C3)n(CC3CC3)c12 [Example I-797]
4,< 100 nM,CCc1nc(C)ccc1-c1cc(C(=O)N2CCN(c3nc(C)c(F)cc3OC)CC2)cc2cc(C3=CCCN(C(=O)CC(=O)O)C3)n(CC3CC3)c12 [Example I-792]
5,100 to 1000 nM,COc1ccccc1-c1cc(C2=CCCN(C(=O)CCn3ccnn3)C2)c(F)c2[nH]c(CN3CCN(c4ncccc4OC)CC3=O)cc12 [Example I-1171]
6,100 to 1000 nM,COc1cc(F)cnc1N1CCN(C(=O)c2cc3c(-c4cccc(C5CC5)c4)cc(C4=CCCN(C(=O)CCn5ccnn5)C4)c(F)c3[nH]2)CC1 [Example I-674]
7,< 100 nM,CN(C)C(=O)c1cc2cc(C3=CCCN(C(=O)CCn4ccnn4)C3)cc(-c3cccc4c3CN(C)C4=O)c2o1 [Example I-845]
8,< 100 nM,COc1cc(F)cnc1N1CCN(C(=O)c2cc3c(-c4cccc(-n5nc(C)cc5C)c4)cc(C4=CCCN(C(=O)CCn5ccnn5)C4)c(F)c3[nH]2)CC1 [Example I-620]
9,< 100 nM,COc1ccccc1-c1cc(C2=CCCN(C(=O)CCn3ccnn3)C2)c(F)c2[nH]c(C(=O)N3Cc4c(C)nn(C)c4C3)cc12 [Example I-509]
10,< 100 nM,CN(C)C(=O)c1cc2c(-c3cc4cc[nH]c4cc3Cl)cc(C3=CCCN(C(=O)CCn4ccnn4)C3)cc2[nH]1 [Example I-1066]
11,100 to 1000 nM,"COc1ccccc1-c1cc(C2=CCCN(C(=O)[C@H]3Cc4ccccc4CN3C=O)C2)cc2cc(C(=O)N(C)C)oc12 (single isomer, unassigned) [Example I-804]"
12,< 100 nM,COc1ccccc1-c1cc(C(=O)N2CCN(c3ncc(F)cc3OC)CC2)cc2cc(C3=CCCN(C(=O)CCn4ccnn4)C3)n(CC(C)C)c12 [Example I-521]
13,< 100 nM,COc1ccccc1-c1cc(C2=CCCN(C(=O)CCn3ccnn3)C2)c(F)c2[nH]c(C(=O)N3CCN(c4cccc5cncn45)CC3)cc12 [Example I-936]
14,< 100 nM,COc1ccccc1-c1cc(C2=CCCN(C(=O)CCn3ccnn3)C2)c(F)c2[nH]c(C(=O)N3CCN(c4cc(OC)c5ccnn5c4)CC3)cc12 [Example I-917]
15,10000 to 100000 nM,COc1ccccc1-c1cc(C2=CCCN(C(=O)CCn3cccn3)C2)c(F)c2[nH]c(C(=O)N3Cc4cnn(C)c4C3)cc12 [Example I-503]
16,< 100 nM,COc1ccccc1-c1cc(C2=CCCN(C(=O)CCn3ccnn3)C2)c(F)c2[nH]c(C(=O)N3CCN(c4ccc5cn[nH]c5c4)CC3)cc12 [Example I-963]
17,< 100 nM,CN(C)C(=O)c1ccc2c(c1)cc(C1=CCCN(C(=O)CCn3ccnn3)C1)n2CC1CC1 [Example I-1096]
18,100 to 1000 nM,COc1cc(Cl)cnc1N1CCN(C(=O)c2cc3c(-c4cnc5ccccc5c4OC)cc(C4=CCCN(C(=O)CCn5ccnn5)C4)c(F)c3[nH]2)CC1 [Example I-1037]
19,< 100 nM,COc1cc(F)cnc1N1CCN(C(=O)c2cc3c(C4=CCC(C#N)CC4)cc(C4=CCCN(C(=O)CCn5ccnn5)C4)c(F)c3[nH]2)CC1 (centres unmarked) [Example I-1141]
20,< 100 nM,CCOc1ccncc1-c1cc(C2=CCCN(C(=O)CCn3ccnn3)C2)c(F)c2[nH]c(C(=O)N3CCN(c4cncnc4OC)CC3)cc12 [Example I-470]
21,< 100 nM,COc1cc(F)cnc1N1CCN(C(=O)c2cc3c(-c4cccc(C(C)(C)C#N)c4)cc(C4=CCCN(C(=O)CCn5ccnn5)C4)c(F)c3[nH]2)CC1 [Example I-682]
22,< 100 nM,CCc1ccccc1-c1cc(C2=CCCN(C(=O)CCn3cccn3)C2)c(F)c2[nH]c(C(=O)N3CCN(c4ncc(F)cc4OC)CC3)cc12 [Example I-662]
23,100 to 1000 nM,COc1ccccc1-c1cc(C2=CCCN(C(=O)CCn3ccnn3)C2)c(F)c2[nH]c(C(=O)N3CCN(c4nc5ccccc5c5ccccc45)CC3)cc12 [Example I-916]
24,< 100 nM,"(R)-1-(3-(7-fluoro-2-(4-(5-fluoro-3-methoxypyridin-2-yl)piperazine-1-carbonyl)-4-(1-methylpyrrolidin-3-yl)-1H-indol-6-yl)-5,6-dihydropyridin-1(2H)-yl)-3-(1H-1,2,3-triazol-1-yl)propan-1-one [Example I-812]"
25,< 100 nM,COc1ccccc1-c1cc(C2=CCCN(C(=O)CCn3ccnn3)C2)c(F)c2[nH]c(C(=O)N3CCN(c4nc(C)nc5ccccc45)CC3)cc12 [Example I-923]
26,< 100 nM,CCN1CCCCC1c1cc(C2=CCCN(C(=O)CCn3ccnn3)C2)c(F)c2[nH]c(C(=O)N3CCN(c4ncc(F)cc4OC)CC3)cc12 (centres unmarked) [Example I-784]
27,< 100 nM,CCc1cc(C)ncc1-c1cc(C(=O)N2CCN(c3ncc(F)cc3OC)CC2)cc2cc(C3=CCCN(C(=O)CCn4ccnn4)C3)n(CC3CC3)c12 [Example I-533]

row,IC50,Compound
1,< 100 nM,COc1ccccc1N1CCN(C(=O)c2cc3c(-c4cccc(F)c4OC)cc(C4=CCCN(C(=O)CCn5ccnn5)C4)c(F)c3[nH]2)CC1 [Example I-567]
2,< 100 nM,COc1cc(F)cnc1N1CCN(C(=O)c2cc3c(C4=CCN(c5ccccn5)CC4)cc(C4=CCCN(C(=O)CCn5ccnn5)C4)c(F)c3[nH]2)CC1 [Example I-1117]
3,< 100 nM,COc1ccc(C)cc1-c1cc(C2=CCCN(C(=O)C3Cc4ccccc4CN3C=O)C2)cc2cc(C(=O)N(C)C)oc12 (racemic) [Example I-1196]
4,1000 to 10000 nM,COc1ccccc1-c1cc(C2=CCCN(C(=O)CCn3ccnn3)C2)c(F)c2[nH]c(C(=O)N3CCN(c4ccc5ccccc5c4OC)CC3)cc12 [Example I-956]
5,< 100 nM,CCn1c(C2=CCCN(C(=O)CCn3ccnn3)C2)cc2cc(C(=O)N3CCN(c4ncc(F)cc4OC)CC3)cc(-c3ccccc3OC)c21 [Example I-734]
6,100 to 1000 nM,CCOC(=O)c1cc2ccc(N3CCN(C(=O)c4cc5c(-c6ccccc6OC)cc(C6=CCCN(C(=O)CCn7ccnn7)C6)c(F)c5[nH]4)CC3)cn2c1 [Example I-903]
7,< 100 nM,COc1cc(F)cnc1N1CCN(C(=O)c2cc3c(C4CCN(C)CC4)cc(C4=CCCN(C(=O)CCn5ccnn5)C4)c(F)c3[nH]2)CC1 [Example I-725]
8,< 100 nM,CCc1nc(C)ccc1-c1cc(C(=O)N2CCN(c3ncc(F)cc3OC)CC2)cc2cc(C3=CCCN(C(=O)CCC(=O)O)C3)n(CC3CC3)c12 [Example I-527]
9,< 100 nM,COc1ncccc1-c1cc(C2=CCCN(C(=O)CCn3ccnn3)C2)c(F)c2[nH]c(C(=O)N3CCN(C4CC4)CC3)cc12 [Example I-602]
10,< 100 nM,CNc1ccc(-c2cc(C3=CCCN(C(=O)C4Cc5ccccc5CN4C=O)C3)cc3[nH]c(C(=O)N(C)C)cc23)cc1 (centres unmarked) [Example I-551]
11,< 100 nM,COc1cc(F)cnc1N1CCN(C(=O)c2cc3c(C4=COCCC4)cc(C4=CCCN(C(=O)CCn5ccnn5)C4)c(F)c3[nH]2)CC1 [Example I-1155]
12,< 100 nM,COc1cc(F)cnc1N1CCN(C(=O)c2cc3c(-c4ccc(N5C[C@@H](C)O[C@@H](C)C5)nc4)cc(C4=CCCN(C(=O)CCn5ccnn5)C4)c(F)c3[nH]2)CC1 [Example I-1138]
13,< 100 nM,COc1ccccc1-c1cc(C2=CCCN(C(=O)CCn3ccnn3)C2)c(F)c2[nH]c(C(=O)N3CCN(CC4(C)COC4)CC3)cc12 [Example I-1183]
14,< 100 nM,COc1ccccc1-c1cc(C2=CCCN(C(=O)CCn3ccnn3)C2)c(F)c2[nH]c(C(=O)N3CCN(C4CC5CCC4C5)CC3)cc12 (centres unmarked) [Example I-1181]
15,< 100 nM,COc1ccccc1-c1cc(C2=CCCN(C(=O)CCn3ccnn3)C2)c(F)c2[nH]c(C(=O)N3CCN(c4cc5ccccc5cc4OC)CC3)cc12 [Example I-342]
16,100 to 1000 nM,COc1ccccc1-c1cc(C2=CCCN(C(=O)CCn3ccnn3)C2)c(F)c2[nH]c(C(=O)N3CC4CN(c5ncccc5OC)CC4C3)cc12 (centres unmarked) [Example I-912]
17,< 100 nM,COc1ccccc1-c1cc(C2=CCCN(C(=O)CCn3ccnn3)C2)cc2[nH]c(C(=O)N(C)C)cc12 [Example I-1054]
18,< 100 nM,"CN(C)C(=O)c1cc2c(F)c(C3=CCCN(C(=O)C4Cc5ccccc5CN4C=O)C3)ccc2o1 (centres unmarked) [Example I-374, 4-fluoro-5-(1-(2-formyl-1,2,3,4-tetrahydroisoquinoline-3-carbonyl)-1,2,5,6-tetrahydropyridin-3-yl)-N,N-dimethylbenzofuran-2-carboxamide]"
19,< 100 nM,COc1ccc(Cl)c(-c2cc(C3=CCCN(C(=O)CCn4ccnn4)C3)cc3[nH]c(C(=O)N(C)C)cc23)c1 [Example I-1062]
20,< 100 nM,COc1cnccc1-c1cc(C2=CCCN(C(=O)CCn3cccn3)C2)c(F)c2[nH]c(C(=O)N3CCN(c4ncc(F)cc4OC)CC3)cc12 [Example I-663]
21,< 100 nM,COc1cc(F)cnc1N1CCN(C(=O)c2cc3c(-c4ccc(-n5nc(C)cc5C)cc4)cc(C4=CCCN(C(=O)CCn5ccnn5)C4)c(F)c3[nH]2)CC1 [Example I-1114]
22,> 100000 nM,COc1ccccc1-c1cc(C2=CCCN(C(=O)CCn3ccnn3)C2)c(F)c2[nH]c(C(=O)N3CCN(c4nc(OC(F)F)ccc4OC)CC3)cc12 [Example I-490]
23,< 100 nM,COc1cc(F)cnc1N1CCN(C(=O)c2cc3c(-c4cc(C)ncc4C)cc(C4=CCCN(C(=O)CCn5ccnn5)C4)c(F)c3[nH]2)CC1 [Example I-646]
24,< 100 nM,COc1ccccc1-c1cc(C2=CCCN(C(=O)CCn3ccnn3)C2)c(F)c2[nH]c(C(=O)N3CCN(c4[nH]ncc4OC)CC3)cc12 [Example I-508]
25,< 100 nM,COc1ccccc1-c1cc(C2=CCCN(C(=O)CCn3ccnn3)C2)c(F)c2[nH]c(C(=O)N3CCN(c4ccc5c(c4)C=NCC5)CC3)cc12 [Example I-918]
26,< 100 nM,CCOc1cccnc1N1CCN(C(=O)c2cc3c(-c4cnccc4OC)cc(C4=CCCN(C(=O)CCn5ccnn5)C4)c(F)c3[nH]2)CC1 [Example I-564]
